Test system: 266295-075-R-J1-PDC spheroid viability
Assay: Anticancer human tumor 266295-075-R-J1-PDC patient-derived head and neck squamous carcinoma cell line growth inhibition [POLQ]
Settings: spheroids with HUVEC and MSC; for IC50: curve of first compound; for viability, T/C: stronger effect = lower value
Procedure, shortened: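 Complex spheroid viability model combining PDC tumour cells with endothelial (HUVEC) and MSC stromal cells. Novobiocin, ART-558 or RP6685 were tested singly and in combination with standard and investigational anticancer drugs. Each was titrated in half-log steps from near clinical Cmax, or from 10 microM where Cmax was unknown.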

[1] = second compound 0.0316 µM, first compound 0.0316 µM
[2] = second compound 0.0316 µM, first compound 0.1 µM
[3] = second compound 0.0316 µM, first compound 0.316 µM
[4] = second compound 0.0316 µM, first compound 1 µM
[5] = second compound 0.0316 µM, first compound 3.16 µM
[6] = second compound 0.0316 µM, first compound 10 µM
[7] = second compound 0.1 µM, first compound 0.0316 µM
[8] = second compound 0.1 µM, first compound 0.1 µM
[9] = second compound 0.1 µM, first compound 0.316 µM
[10] = second compound 0.1 µM, first compound 1 µM
[11] = second compound 0.1 µM, first compound 3.16 µM
[12] = second compound 0.1 µM, first compound 10 µM
[13] = second compound 0.316 µM, first compound 0.0316 µM
[14] = second compound 0.316 µM, first compound 0.1 µM
[15] = second compound 0.316 µM, first compound 0.316 µM
[16] = second compound 0.316 µM, first compound 1 µM
[17] = second compound 0.316 µM, first compound 3.16 µM
[18] = second compound 0.316 µM, first compound 10 µM
[19] = second compound 1 µM, first compound 0.0316 µM
[20] = second compound 1 µM, first compound 0.1 µM
[21] = second compound 1 µM, first compound 0.316 µM
[22] = second compound 1 µM, first compound 1 µM
[23] = second compound 1 µM, first compound 3.16 µM
[24] = second compound 1 µM, first compound 10 µM
[25] = second compound 3.16 µM, first compound 0.0316 µM
[26] = second compound 3.16 µM, first compound 0.1 µM
[27] = second compound 3.16 µM, first compound 0.316 µM
[28] = second compound 3.16 µM, first compound 1 µM
[29] = second compound 3.16 µM, first compound 3.16 µM
[30] = second compound 3.16 µM, first compound 10 µM
[31] = second compound 10 µM, first compound 0.0316 µM
[32] = second compound 10 µM, first compound 0.1 µM
[33] = second compound 10 µM, first compound 0.316 µM
[34] = second compound 10 µM, first compound 1 µM
[35] = second compound 10 µM, first compound 3.16 µM
[36] = second compound 10 µM, first compound 10 µM
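Note: spheroids exposed to compounds for seven days before readout.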

## COc1cc(C2c3cc4c(cc3C(OC3OC5COC(C)OC5C(O)C3O)C3COC(=O)C23)OCO4)cc(OC)c1O (stereo unspecified) + Cc1cccc(N(C)C(=O)C2C(O)CCN2c2nc(C)cc(C(F)(F)F)c2C#N)c1
Second compound 0.0316 µM
  IC50: > 10 µM
Second compound 0.1 µM
  IC50: > 10 µM
Second compound 0.316 µM
  IC50: > 10 µM
Second compound 1 µM
  IC50: > 10 µM
Second compound 3.16 µM
  IC50: > 10 µM
Second compound 10 µM
  IC50: > 10 µM
[1]
  viability, T/C: 83.3%
[2]
  viability, T/C: 75.2%
[3]
  viability, T/C: 82.2%
[4]
  viability, T/C: 75.8%
[5]
  viability, T/C: 75.3%
[6]
  viability, T/C: 64.9%
[7]
  viability, T/C: 78.8%
[8]
  viability, T/C: 82.2%
[9]
  viability, T/C: 72.5%
[10]
  viability, T/C: 69.4%
[11]
  viability, T/C: 70.7%
[12]
  viability, T/C: 70.2%
[13]
  viability, T/C: 96.5%
[14]
  viability, T/C: 73.1%
[15]
  viability, T/C: 73.9%
[16]
  viability, T/C: 76.3%
[17]
  viability, T/C: 73.1%
[18]
  viability, T/C: 57.9%
[19]
  viability, T/C: 86.1%
[20]
  viability, T/C: 95.4%
[21]
  viability, T/C: 82%
[22]
  viability, T/C: 86.2%
[23]
  viability, T/C: 73.4%
[24]
  viability, T/C: 68.1%
[25]
  viability, T/C: 85.8%
[26]
  viability, T/C: 76.2%
[27]
  viability, T/C: 77.5%
[28]
  viability, T/C: 68.5%
[29]
  viability, T/C: 68.1%
[30]
  viability, T/C: 62.8%
[31]
  viability, T/C: 101%
[32]
  viability, T/C: 72.5%
[33]
  viability, T/C: 69.2%
[34]
  viability, T/C: 72.2%
[35]
  viability, T/C: 72.5%
[36]
  viability, T/C: 60%

## O=C(Nc1ccc(O)c(NS(=O)(=O)c2ccc(F)cc2)c1)c1ccc(-c2ccccc2)cc1 + COC1C(OC(N)=O)C(O)C(Oc2ccc3c(O)c(NC(=O)c4ccc(O)c(CC=C(C)C)c4)c(=O)oc3c2C)OC1(C)C
Second compound 0.0316 µM
  IC50: > 10 µM
Second compound 0.1 µM
  IC50: > 10 µM
Second compound 0.316 µM
  IC50: > 10 µM
Second compound 1 µM
  IC50: > 10 µM
Second compound 3.16 µM
  IC50: > 10 µM
Second compound 10 µM
  IC50: > 10 µM
[1]
  viability, T/C: 93.7%
[2]
  viability, T/C: 96.6%
[3]
  viability, T/C: 110%
[4]
  viability, T/C: 110%
[5]
  viability, T/C: 128%
[6]
  viability, T/C: 113%
[7]
  viability, T/C: 112%
[8]
  viability, T/C: 87.2%
[9]
  viability, T/C: 109%
[10]
  viability, T/C: 112%
[11]
  viability, T/C: 145%
[12]
  viability, T/C: 107%
[13]
  viability, T/C: 101%
[14]
  viability, T/C: 102%
[15]
  viability, T/C: 116%
[16]
  viability, T/C: 104%
[17]
  viability, T/C: 120%
[18]
  viability, T/C: 103%
[19]
  viability, T/C: 111%
[20]
  viability, T/C: 105%
[21]
  viability, T/C: 99.7%
[22]
  viability, T/C: 112%
[23]
  viability, T/C: 130%
[24]
  viability, T/C: 112%
[25]
  viability, T/C: 115%
[26]
  viability, T/C: 96.6%
[27]
  viability, T/C: 101%
[28]
  viability, T/C: 119%
[29]
  viability, T/C: 136%
[30]
  viability, T/C: 104%
[31]
  viability, T/C: 115%
[32]
  viability, T/C: 94.8%
[33]
  viability, T/C: 110%
[34]
  viability, T/C: 100%
[35]
  viability, T/C: 130%
[36]
  viability, T/C: 103%

## CC1COCCN1c1cc(C2(O)CC3CCC(C2)O3)c2cnn(-c3ccn[nH]3)c2n1 (stereo unspecified) + Nc1ccc(C#CCN(C(=O)Cc2ncc(C(F)(F)F)cc2C(F)(F)F)c2ccc(F)cc2)nn1
Second compound 0.0316 µM
  IC50: 0.996 µM
Second compound 0.1 µM
  IC50: 0.591 µM
Second compound 0.316 µM
  IC50: 0.324 µM
Second compound 1 µM
  IC50: 0.903 µM
Second compound 3.16 µM
  IC50: 0.831 µM
Second compound 10 µM
  IC50: 0.706 µM
[1]
  viability, T/C: 80.4%
[2]
  viability, T/C: 112%
[3]
  viability, T/C: 67.6%
[4]
  viability, T/C: 54.4%
[5]
  viability, T/C: 42.5%
[6]
  viability, T/C: 32.3%
[7]
  viability, T/C: 96.9%
[8]
  viability, T/C: 85.9%
[9]
  viability, T/C: 53.5%
[10]
  viability, T/C: 46.6%
[11]
  viability, T/C: 39.2%
[12]
  viability, T/C: 29.9%
[13]
  viability, T/C: 94.9%
[14]
  viability, T/C: 100%
[15]
  viability, T/C: 50.2%
[16]
  viability, T/C: 51.2%
[17]
  viability, T/C: 38.3%
[18]
  viability, T/C: 26.9%
[19]
  viability, T/C: 86.2%
[20]
  viability, T/C: 66.3%
[21]
  viability, T/C: 63.1%
[22]
  viability, T/C: 46.9%
[23]
  viability, T/C: 42.5%
[24]
  viability, T/C: 25.7%
[25]
  viability, T/C: 83.9%
[26]
  viability, T/C: 84.1%
[27]
  viability, T/C: 63.7%
[28]
  viability, T/C: 46.8%
[29]
  viability, T/C: 36.8%
[30]
  viability, T/C: 27.8%
[31]
  viability, T/C: 78.4%
[32]
  viability, T/C: 75.7%
[33]
  viability, T/C: 69.8%
[34]
  viability, T/C: 41.2%
[35]
  viability, T/C: 30.2%
[36]
  viability, T/C: 26.7%

Reference: PubChem BioAssay AID1963853 (Molecular Pharmacology Branch, DTP, NCI, 2024)
